From ChEMBL document CHEMBL4507274 (2021)

Key:
[1] = target: Mitogen-activated protein kinase kinase kinase 15 (Homo sapiens) (UniProt Q6ZN16); details: Compound concentration 100.0 nM
[2] = target: Serine/threonine-protein kinase PLK2 (Homo sapiens) (UniProt Q9NYY3); details: Compound concentration 100.0 nM
[3] = target: Cyclin-dependent kinase 9 (Homo sapiens) (UniProt P50750); details: Compound concentration 100.0 nM
[4] = target: T1, Mitogen-activated protein kinase 12 (Homo sapiens) (UniProt P53778); details: Compound concentration 100.0 nM
T1 sequence (whole entry): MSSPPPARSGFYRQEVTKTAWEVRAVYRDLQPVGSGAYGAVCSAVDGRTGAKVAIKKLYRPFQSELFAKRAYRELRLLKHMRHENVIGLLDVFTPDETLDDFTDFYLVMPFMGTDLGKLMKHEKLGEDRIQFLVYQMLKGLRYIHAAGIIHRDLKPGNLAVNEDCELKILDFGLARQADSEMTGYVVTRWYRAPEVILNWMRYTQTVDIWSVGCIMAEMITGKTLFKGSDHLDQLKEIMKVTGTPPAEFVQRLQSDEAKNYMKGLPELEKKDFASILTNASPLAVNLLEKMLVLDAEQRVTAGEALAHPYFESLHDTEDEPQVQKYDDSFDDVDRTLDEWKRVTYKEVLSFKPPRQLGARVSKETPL

[5] = target: Phosphorylase b kinase gamma catalytic chain, skeletal muscle/heart isoform (Homo sapiens) (UniProt Q16816); details: Compound concentration 100.0 nM
[6] = target: Serine/threonine-protein kinase MRCK alpha (Homo sapiens) (UniProt Q5VT25); details: Compound concentration 100.0 nM
[7] = target: Cyclin-dependent kinase 2 (Homo sapiens) (UniProt P24941); details: Compound concentration 100.0 nM
[8] = target: Serine/threonine-protein kinase NIM1 (Homo sapiens) (UniProt Q8IY84); details: Compound concentration 100.0 nM
[9] = target: Protein kinase C theta type (Homo sapiens) (UniProt Q04759); details: Compound concentration 100.0 nM
[10] = target: Receptor-interacting serine/threonine-protein kinase 2 (Homo sapiens) (UniProt O43353); details: Compound concentration 100.0 nM
[11] = target: Receptor-interacting serine/threonine-protein kinase 4 (Homo sapiens) (UniProt P57078); details: Compound concentration 100.0 nM
[12] = system: Proto-oncogene tyrosine-protein kinase receptor Ret (Homo sapiens), P07949 [V804L]; details: Compound concentration 100.0 nM
[13] = target: Beta-2 adrenergic receptor (Homo sapiens) (UniProt P07550); details: Compound concentration 10.0 uM
[14] = target: Interleukin-1 receptor-associated kinase 1 (Homo sapiens) (UniProt P51617); details: Compound concentration 100.0 nM
[15] = target: Protein-tyrosine kinase 6 (Homo sapiens) (UniProt Q13882); details: Compound concentration 100.0 nM
[16] = target: NUAK family SNF1-like kinase 1 (Homo sapiens) (UniProt O60285); details: Compound concentration 100.0 nM
[17] = target: Serine/threonine-protein kinase ULK3 (Homo sapiens) (UniProt Q6PHR2); details: Compound concentration 100.0 nM
[18] = target: Serine/threonine-protein kinase Nek4 (Homo sapiens) (UniProt P51957); details: Compound concentration 100.0 nM
[19] = target: Serine/threonine-protein kinase PAK 3 (Homo sapiens) (UniProt O75914); details: Compound concentration 100.0 nM
[20] = target: Cyclin-dependent kinase-like 3 (Homo sapiens) (UniProt Q8IVW4); details: Compound concentration 100.0 nM
[21] = target: Focal adhesion kinase 1 (Homo sapiens) (UniProt Q05397); details: Compound concentration 100.0 nM
[22] = target: Cyclin-dependent kinase 7 (Homo sapiens) (UniProt P50613); details: Compound concentration 100.0 nM
[23] = target: Rhodopsin kinase GRK7 (Homo sapiens) (UniProt Q8WTQ7); details: Compound concentration 100.0 nM
[24] = system: Fibroblast growth factor receptor 3 (Homo sapiens), P22607 [G697C]; details: Compound concentration 100.0 nM
[25] = target: Tyrosine-protein kinase ABL1 (Homo sapiens) (UniProt P00519); details: Compound concentration 100.0 nM
[26] = target: Sigma non-opioid intracellular receptor 1 (Homo sapiens, UniProt Q99720); details: Compound concentration 10.0 uM
[27] = target: Dual specificity protein kinase TTK (Homo sapiens) (UniProt P33981); details: Compound concentration 100.0 nM
[28] = system: Mast/stem cell growth factor receptor Kit (Homo sapiens), P10721 [D816H]; details: Compound concentration 100.0 nM
[29] = target: Serine/threonine-protein kinase WNK3 (Homo sapiens) (UniProt Q9BYP7); details: Compound concentration 100.0 nM
[30] = target: Receptor tyrosine-protein kinase erbB-3 (Homo sapiens) (UniProt P21860); details: Compound concentration 100.0 nM
[31] = target: Wee1-like protein kinase (Homo sapiens) (UniProt P30291); details: Compound concentration 100.0 nM
[32] = system: Tyrosine-protein kinase ABL1 (Homo sapiens), P00519 [M351T]; details: Compound concentration 100.0 nM

Sequence of Beta-2 adrenergic receptor (Homo sapiens) (P07550 whole entry, looked up): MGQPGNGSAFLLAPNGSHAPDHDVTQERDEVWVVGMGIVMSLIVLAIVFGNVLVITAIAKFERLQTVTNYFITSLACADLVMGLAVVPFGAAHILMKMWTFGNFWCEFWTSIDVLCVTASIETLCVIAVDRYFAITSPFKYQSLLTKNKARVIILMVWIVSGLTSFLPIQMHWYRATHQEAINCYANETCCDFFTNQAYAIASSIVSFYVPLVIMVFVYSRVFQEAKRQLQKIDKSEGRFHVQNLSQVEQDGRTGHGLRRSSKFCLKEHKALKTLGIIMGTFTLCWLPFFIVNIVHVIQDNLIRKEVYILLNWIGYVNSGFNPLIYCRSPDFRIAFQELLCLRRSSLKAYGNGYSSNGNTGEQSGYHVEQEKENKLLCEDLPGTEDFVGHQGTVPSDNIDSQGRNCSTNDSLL
Sequence of Mast/stem cell growth factor receptor Kit (Homo sapiens), P10721 [D816H] (P10721 whole entry D816H): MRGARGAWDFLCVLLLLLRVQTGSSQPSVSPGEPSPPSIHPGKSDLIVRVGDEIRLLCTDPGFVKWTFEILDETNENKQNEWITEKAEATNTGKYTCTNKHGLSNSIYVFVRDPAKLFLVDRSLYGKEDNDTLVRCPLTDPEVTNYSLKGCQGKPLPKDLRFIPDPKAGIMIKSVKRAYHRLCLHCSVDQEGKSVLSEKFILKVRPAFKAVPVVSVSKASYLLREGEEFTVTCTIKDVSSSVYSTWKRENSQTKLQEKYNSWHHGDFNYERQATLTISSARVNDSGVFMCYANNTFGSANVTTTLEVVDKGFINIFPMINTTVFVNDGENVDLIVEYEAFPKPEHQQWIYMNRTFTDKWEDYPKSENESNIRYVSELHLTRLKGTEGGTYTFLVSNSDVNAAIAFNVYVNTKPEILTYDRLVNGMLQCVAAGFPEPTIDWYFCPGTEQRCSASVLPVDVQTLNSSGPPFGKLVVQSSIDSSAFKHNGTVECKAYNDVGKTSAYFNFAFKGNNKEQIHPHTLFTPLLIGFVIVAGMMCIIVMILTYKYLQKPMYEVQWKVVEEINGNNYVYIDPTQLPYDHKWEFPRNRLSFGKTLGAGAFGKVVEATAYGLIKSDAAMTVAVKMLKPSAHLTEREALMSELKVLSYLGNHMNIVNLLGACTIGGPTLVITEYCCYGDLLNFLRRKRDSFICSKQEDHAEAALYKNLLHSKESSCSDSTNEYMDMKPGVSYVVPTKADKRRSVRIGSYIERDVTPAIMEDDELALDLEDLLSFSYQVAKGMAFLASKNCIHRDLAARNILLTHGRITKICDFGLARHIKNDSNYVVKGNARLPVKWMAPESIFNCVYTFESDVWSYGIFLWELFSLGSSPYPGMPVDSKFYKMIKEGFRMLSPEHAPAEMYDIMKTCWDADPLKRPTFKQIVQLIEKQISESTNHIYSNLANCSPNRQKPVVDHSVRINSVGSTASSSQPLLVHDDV
Sequence of Protein-tyrosine kinase 6 (Homo sapiens) (Q13882 whole entry, looked up): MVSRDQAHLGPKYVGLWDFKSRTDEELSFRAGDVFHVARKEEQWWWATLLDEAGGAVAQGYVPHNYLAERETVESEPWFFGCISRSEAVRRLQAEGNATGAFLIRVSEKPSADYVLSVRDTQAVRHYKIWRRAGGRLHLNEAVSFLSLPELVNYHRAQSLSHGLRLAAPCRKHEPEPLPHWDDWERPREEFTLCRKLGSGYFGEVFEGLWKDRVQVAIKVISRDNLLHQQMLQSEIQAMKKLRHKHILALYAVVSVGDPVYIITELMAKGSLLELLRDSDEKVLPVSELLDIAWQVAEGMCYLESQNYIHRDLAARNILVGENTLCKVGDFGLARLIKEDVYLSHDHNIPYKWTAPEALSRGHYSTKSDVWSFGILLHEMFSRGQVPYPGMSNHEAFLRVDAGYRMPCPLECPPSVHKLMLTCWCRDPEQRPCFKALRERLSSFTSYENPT
Sequence of Receptor-interacting serine/threonine-protein kinase 4 (Homo sapiens) (P57078 whole entry): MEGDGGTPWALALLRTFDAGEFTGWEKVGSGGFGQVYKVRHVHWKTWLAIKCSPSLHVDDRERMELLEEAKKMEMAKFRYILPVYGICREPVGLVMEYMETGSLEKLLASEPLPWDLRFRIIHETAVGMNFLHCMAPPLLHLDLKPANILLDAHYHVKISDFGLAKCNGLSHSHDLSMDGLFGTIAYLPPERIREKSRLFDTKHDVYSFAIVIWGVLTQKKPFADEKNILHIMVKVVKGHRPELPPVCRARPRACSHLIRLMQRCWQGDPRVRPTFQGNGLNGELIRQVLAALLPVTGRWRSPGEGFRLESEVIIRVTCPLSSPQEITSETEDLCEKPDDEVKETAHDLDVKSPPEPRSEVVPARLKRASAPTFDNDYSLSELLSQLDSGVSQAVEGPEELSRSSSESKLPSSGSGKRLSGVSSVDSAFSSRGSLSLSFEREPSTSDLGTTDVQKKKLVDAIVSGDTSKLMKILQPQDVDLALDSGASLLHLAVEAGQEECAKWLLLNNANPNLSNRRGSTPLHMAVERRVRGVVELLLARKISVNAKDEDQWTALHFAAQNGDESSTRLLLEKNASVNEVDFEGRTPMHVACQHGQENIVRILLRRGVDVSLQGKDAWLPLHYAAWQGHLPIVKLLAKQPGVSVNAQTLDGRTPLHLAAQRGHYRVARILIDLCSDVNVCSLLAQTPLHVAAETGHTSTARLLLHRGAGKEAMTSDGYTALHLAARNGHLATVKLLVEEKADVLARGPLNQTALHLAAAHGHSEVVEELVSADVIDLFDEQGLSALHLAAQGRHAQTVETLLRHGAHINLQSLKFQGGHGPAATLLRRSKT
Sequence of Serine/threonine-protein kinase PLK2 (Homo sapiens) (Q9NYY3 whole entry, looked up): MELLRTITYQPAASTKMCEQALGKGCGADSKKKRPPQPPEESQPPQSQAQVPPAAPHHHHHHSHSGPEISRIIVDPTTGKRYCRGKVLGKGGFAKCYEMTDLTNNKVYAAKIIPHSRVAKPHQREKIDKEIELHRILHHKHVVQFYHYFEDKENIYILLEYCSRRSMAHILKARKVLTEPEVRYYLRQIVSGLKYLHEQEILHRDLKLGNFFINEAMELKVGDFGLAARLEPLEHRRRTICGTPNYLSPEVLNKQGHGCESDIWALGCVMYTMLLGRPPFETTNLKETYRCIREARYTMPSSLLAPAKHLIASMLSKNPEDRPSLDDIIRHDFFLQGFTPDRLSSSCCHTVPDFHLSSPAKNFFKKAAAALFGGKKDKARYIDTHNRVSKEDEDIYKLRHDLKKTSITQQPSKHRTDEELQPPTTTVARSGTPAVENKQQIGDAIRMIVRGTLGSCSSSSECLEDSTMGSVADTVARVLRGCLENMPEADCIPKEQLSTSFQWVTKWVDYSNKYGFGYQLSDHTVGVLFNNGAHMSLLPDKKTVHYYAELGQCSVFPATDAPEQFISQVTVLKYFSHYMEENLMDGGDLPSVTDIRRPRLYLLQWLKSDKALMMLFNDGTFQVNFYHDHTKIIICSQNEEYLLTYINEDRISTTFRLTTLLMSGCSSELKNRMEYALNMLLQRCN
Sequence of Wee1-like protein kinase (Homo sapiens) (P30291 whole entry, looked up): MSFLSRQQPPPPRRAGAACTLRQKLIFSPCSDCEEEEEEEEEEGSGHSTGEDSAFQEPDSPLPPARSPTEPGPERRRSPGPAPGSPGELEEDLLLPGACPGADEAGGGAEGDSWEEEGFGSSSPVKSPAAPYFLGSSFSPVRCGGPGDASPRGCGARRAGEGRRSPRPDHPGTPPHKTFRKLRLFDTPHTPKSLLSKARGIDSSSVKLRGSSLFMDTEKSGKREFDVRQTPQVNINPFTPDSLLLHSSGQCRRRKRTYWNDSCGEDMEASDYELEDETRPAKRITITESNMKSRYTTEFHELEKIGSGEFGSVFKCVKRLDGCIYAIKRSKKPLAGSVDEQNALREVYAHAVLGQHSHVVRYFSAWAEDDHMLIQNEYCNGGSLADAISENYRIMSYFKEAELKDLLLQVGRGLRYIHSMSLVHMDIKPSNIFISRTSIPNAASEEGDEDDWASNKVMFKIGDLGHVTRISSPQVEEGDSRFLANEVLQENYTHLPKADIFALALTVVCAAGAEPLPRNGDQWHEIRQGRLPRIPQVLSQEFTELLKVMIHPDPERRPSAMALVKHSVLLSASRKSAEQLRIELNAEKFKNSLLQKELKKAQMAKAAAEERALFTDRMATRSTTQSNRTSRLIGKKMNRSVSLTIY
Sequence of Receptor-interacting serine/threonine-protein kinase 2 (Homo sapiens) (O43353 whole entry): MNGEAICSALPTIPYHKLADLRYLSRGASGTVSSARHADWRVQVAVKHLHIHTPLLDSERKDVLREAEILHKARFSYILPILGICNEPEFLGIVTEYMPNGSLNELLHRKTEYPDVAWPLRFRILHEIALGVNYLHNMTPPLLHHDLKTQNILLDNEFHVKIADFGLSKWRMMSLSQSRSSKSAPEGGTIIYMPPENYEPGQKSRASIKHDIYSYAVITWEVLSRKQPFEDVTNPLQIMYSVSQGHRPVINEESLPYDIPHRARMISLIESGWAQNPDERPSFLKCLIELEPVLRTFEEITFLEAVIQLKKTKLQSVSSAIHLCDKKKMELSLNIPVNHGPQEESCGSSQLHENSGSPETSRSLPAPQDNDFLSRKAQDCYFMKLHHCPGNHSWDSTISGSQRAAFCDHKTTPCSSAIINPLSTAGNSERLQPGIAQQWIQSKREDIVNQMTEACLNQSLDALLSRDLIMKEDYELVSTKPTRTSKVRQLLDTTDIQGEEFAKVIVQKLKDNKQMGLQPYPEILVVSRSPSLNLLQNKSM
Sequence of Serine/threonine-protein kinase ULK3 (Homo sapiens) (Q6PHR2 whole entry): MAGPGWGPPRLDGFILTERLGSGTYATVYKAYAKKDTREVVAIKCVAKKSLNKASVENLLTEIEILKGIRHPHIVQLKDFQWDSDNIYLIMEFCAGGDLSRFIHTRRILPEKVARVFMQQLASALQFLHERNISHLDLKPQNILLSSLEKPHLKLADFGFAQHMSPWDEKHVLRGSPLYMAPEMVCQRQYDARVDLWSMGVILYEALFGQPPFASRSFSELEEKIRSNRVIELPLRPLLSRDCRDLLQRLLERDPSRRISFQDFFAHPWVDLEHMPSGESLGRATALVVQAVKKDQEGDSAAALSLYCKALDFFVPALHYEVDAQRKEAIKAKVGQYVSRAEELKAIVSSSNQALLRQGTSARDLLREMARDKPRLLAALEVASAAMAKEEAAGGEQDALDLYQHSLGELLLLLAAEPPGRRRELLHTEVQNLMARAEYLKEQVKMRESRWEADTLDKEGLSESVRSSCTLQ

In the case of `Cc1c[nH]c2nccc(Oc3c(F)cc(Nc4cc(Cl)nc(N)n4)cc3F)c12` [BAY-549], the residual activity [1] is reported as 94%, the residual activity [2] is reported as 59% and the residual activity [3] is reported as 78%. For the same compound, the residual activity [4] was 100%, the residual activity [5] was 100% and the residual activity [6] was 98%. The residual activity [7] was 99%, the residual activity [8] was 75% and the residual activity [9] was 66%. The residual activity [10] was 92%, the residual activity [11] was 84% and the residual activity [12] was 100%. It also gave an inhibition [13] of -7.12%, a residual activity [14] of 90% and a residual activity [15] of 100%. For the same compound, the residual activity [16] was 91%, the residual activity [17] was 88% and the residual activity [18] was 90%. For the same compound, the residual activity [19] was 86%, the residual activity [20] was 100% and the residual activity [21] was 100%. It also gave a residual activity [22] of 91%, a residual activity [23] of 68% and a residual activity [24] of 100%. For the same compound, the residual activity [25] was 97%, the inhibition [26] was 54.8% and the residual activity [27] was 96%. It also gave a residual activity [28] of 95%, a residual activity [29] of 90% and a residual activity [30] of 65%. It also gave a residual activity [31] of 100% and a residual activity [32] of 83%.
In the case of `Cn1cc(Cl)c2c(Oc3c(F)cc(Nc4cc(Cl)nc(N)n4)cc3F)ccnc21` [BAY-4900], the residual activity [1] is reported as 84%, the residual activity [2] is reported as 83% and the residual activity [3] is reported as 100%. For the same compound, the residual activity [4] was 100%, the residual activity [5] was 100% and the residual activity [6] was 84%. For the same compound, the residual activity [7] was 100%, the residual activity [8] was 93% and the residual activity [9] was 99%. For the same compound, the residual activity [10] was 83%, the residual activity [11] was 100% and the residual activity [12] was 91%. It also gave an inhibition [13] of 10.2%, a residual activity [14] of 95% and a residual activity [15] of 86%. The residual activity [16] was 96%, the residual activity [17] was 85% and the residual activity [18] was 84%. The residual activity [19] was 100%, the residual activity [20] was 96% and the residual activity [21] was 100%. The residual activity [22] was 100%, the residual activity [23] was 82% and the residual activity [24] was 100%. The residual activity [25] was 97%, the inhibition [26] was 22.3% and the residual activity [27] was 100%. For the same compound, the residual activity [28] was 79%, the residual activity [29] was 95% and the residual activity [30] was 75%. The residual activity [31] was 91% and the residual activity [32] was 90%.
